Experimental data: patent publication US7772241B2, “Variolin derivatives and their use as antitumor agents” (Pharma Mar S.A., priority 2001, dated 2010)
Like-named read-outs stand apart in the source and are kept apart here.

Assays:
[1] = tested on: K-562; assay: Inhibition of cells growth by colorimetric (SRB) assay, K-562; conditions: for GI50 / CC50: Homo sapiens, K562, 48 h
Method in brief: (§1)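 Human tumour cells seeded at 5×10^3/well in RPMI 1640 10% FBS, attached 18 h, then exposed 48 h to samples at 10 to 10^−8 μg/ml in DMSO/EtOH/PBS (0.5:0.5:99). Growth read by SRB staining after TCA fixation, OD 490 nm, triplicate wells; GI, TGI and LC derived.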

[2] = tested on: DU-145; assay: Inhibition of cells growth by colorimetric (SRB) assay, DU-145; conditions: for GI50 / CC50: Homo sapiens, DU-145, 48 h
Method in brief: as §1

[3] = tested on: SK-OV-3; assay: Inhibition of cells growth by colorimetric (SRB) assay, SK-OV-3
Method in brief: as §1

[4] = tested on: SK-MEL-28; assay: Inhibition of cells growth by colorimetric (SRB) assay, SK-MEL-28; conditions: for GI50 / CC50: Homo sapiens, SK-MEL-28, 48 h
Method in brief: as §1

[5] = tested on: IGROV-ET; assay: Inhibition of cells growth by colorimetric (SRB) assay, IGROV-ET; conditions: for GI50 / CC50: Homo sapiens, 48 h
Method in brief: as §1

[6] = tested on: HeLa-APL; assay: Inhibition of cells growth by colorimetric (SRB) assay, HeLa-APL
Method in brief: as §1

[7] = tested on: SK-BR-3; assay: Inhibition of cells growth by colorimetric (SRB) assay, SK-BR-3; conditions: for GI50 / CC50: Homo sapiens, SK-BR-3, 48 h
Method in brief: as §1

[8] = tested on: HeLa; assay: Inhibition of cells growth by colorimetric (SRB) assay, HeLa
Method in brief: as §1

[9] = tested on: LNCaP; assay: Inhibition of cells growth by colorimetric (SRB) assay, LNCaP; conditions: for GI50 / CC50: Homo sapiens, LNCaP, 48 h
Method in brief: as §1

[10] = tested on: IGROV-1; assay: Inhibition of cells growth by colorimetric (SRB) assay, IGROV-1; conditions: for GI50 / CC50: Homo sapiens, IGROV-1, 48 h
Method in brief: as §1

[11] = tested on: LoVo; assay: Inhibition of cells growth by colorimetric (SRB) assay, LoVo; conditions: for GI50 / CC50: Homo sapiens, LoVo, 48 h
Method in brief: as §1

[12] = tested on: PANC-1; assay: Inhibition of cells growth by colorimetric (SRB) assay, PANC-1; conditions: for GI50 / CC50: Homo sapiens, PANC-1, 48 h
Method in brief: as §1

[13] = Inhibition of cells growth by colorimetric (SRB) assay, HMEC1; conditions: human, HMEC1 cells, LC50 H-MEC-1, SRB assay, 48 hours exposure
[14] = tested on: HMEC1; assay: as above
[15] = tested on: HT-29; assay: Inhibition of cells growth by colorimetric (SRB) assay, HT-29; conditions: for GI50 / CC50: Homo sapiens, HT-29, 48 h
Method in brief: as §1

## CSc1nccc(-c2c3cccnc3n3c(N(C(C)=O)C(C)=O)nccc23)n1 [Compound 26]
[1]; read-out: GI50 K-562, SRB assay, 48 hours exposure
  GI50: 2.8 µM
[1]; read-out: K-562 GI50, SRB assay, 48 hours exposure
  GI50: 6.29 µM
[1]; read-out: K-562 LC50, SRB assay, 48 hours exposure
  CC50: 18.1 µM
[1]; read-out: LC50 K-562, SRB assay, 48 hours exposure
  CC50: 23.4 µM
[1]; SRB assay, 48 hours exposure
  K-562 TGI: 1.07E−05
  TGI K-562: 8.10E−06
[2]; read-out: DU-145 GI50, SRB assay, 48 hours exposure
  GI50: 4.48 µM
[2]; read-out: DU-145 LC50, SRB assay, 48 hours exposure
  CC50: 18 µM
[2]; read-out: GI50 DU-145, SRB assay, 48 hours exposure
  GI50: 0.581 µM
[2]; read-out: LC50 DU-145, SRB assay, 48 hours exposure
  CC50: 14.9 µM
[2]; SRB assay, 48 hours exposure
  DU-145 TGI: 8.99E−06
  TGI DU-145: 2.10E−06
[3]; Homo sapiens, SK-OV-3, 48 h, read-out: GI50 SKOV-3, SRB assay, 48 hours exposure
  GI50: 0.28 µM
[3]; Homo sapiens, SK-OV-3, 48 h, read-out: LC50 SKOV-3, SRB assay, 48 hours exposure
  CC50: 9.35 µM
[3]; SRB assay, 48 hours exposure
  TGI SKOV-3: 1.13E−06
[4]; read-out: GI50 MEL-28, SRB assay, 48 hours exposure
  GI50: 0.273 µM
[4]; read-out: LC50 MEL-28, SRB assay, 48 hours exposure
  CC50: 10.1 µM
[4]; read-out: MEL-28 GI50, SRB assay, 48 hours exposure
  GI50: 0.202 µM
[4]; read-out: MEL-28 LC50, SRB assay, 48 hours exposure
  CC50: 1.29 µM
[4]; SRB assay, 48 hours exposure
  MEL-28 TGI: 5.38E−07
  TGI MEL-28: 2.88E−06
[5]; read-out: GI50 IGROV-ET, SRB assay, 48 hours exposure
  GI50: 1.7 µM
[5]; read-out: IGROV-ET GI50, SRB assay, 48 hours exposure
  GI50: 0.917 µM
[5]; read-out: IGROV-ET LC50, SRB assay, 48 hours exposure
  CC50: 11.4 µM
[5]; read-out: LC50 IGROV-ET, SRB assay, 48 hours exposure
  CC50: 25.5 µM
[5]; SRB assay, 48 hours exposure
  IGROV-ET TGI: 1.83E−06
  TGI IGROV-ET: 7.50E−06
[6]; Homo sapiens, 48 h, read-out: HELA-APL GI50, SRB assay, 48 hours exposure
  GI50: 0.00177 µM
[6]; Homo sapiens, 48 h, read-out: HELA-APL LC50, SRB assay, 48 hours exposure
  CC50: 0.227 µM
[6]; SRB assay, 48 hours exposure
  HELA-APL TGI: 8.64E−09
[7]; read-out: GI50 SK-BR-3, SRB assay, 48 hours exposure
  GI50: 0.278 µM
[7]; read-out: LC50 SK-BR-3, SRB assay, 48 hours exposure
  CC50: 2.53 µM
[7]; read-out: SK-BR-3 GI50, SRB assay, 48 hours exposure
  GI50: 4.18 µM
[7]; read-out: SK-BR-3 LC50, SRB assay, 48 hours exposure
  CC50: 20.7 µM
[7]; SRB assay, 48 hours exposure
  SK-BR-3 TGI: 9.30E−06
  TGI SK-BR-3: 8.38E−07
[8]; Homo sapiens, HeLa, 48 h, read-out: HELA GI50, SRB assay, 48 hours exposure
  GI50: 0.00197 µM
[8]; SRB assay, 48 hours exposure
  HELA TGI: 6.91E−09
[9]; read-out: GI50 LN-caP, SRB assay, 48 hours exposure
  GI50: 0.703 µM
[9]; read-out: LC50 LN-caP, SRB assay, 48 hours exposure
  CC50: 2.28 µM
[9]; read-out: LN-caP GI50, SRB assay, 48 hours exposure
  GI50: 4.51 µM
[9]; read-out: LN-caP LC50, SRB assay, 48 hours exposure
  CC50: 17.5 µM
[9]; SRB assay, 48 hours exposure
  LN-caP TGI: 8.89E−06
  TGI LN-caP: 1.27E−06
[10]; read-out: GI50 IGROV, SRB assay, 48 hours exposure
  GI50: 0.22 µM
[10]; read-out: IGROV GI50, SRB assay, 48 hours exposure
  GI50: 0.721 µM
[10]; read-out: IGROV LC50, SRB assay, 48 hours exposure
  CC50: 9.25 µM
[10]; read-out: LC50 IGROV, SRB assay, 48 hours exposure
  CC50: 9.17 µM
[10]; SRB assay, 48 hours exposure
  IGROV TGI: 1.58E−07
  TGI IGROV: 2.73E−06
[11]; read-out: GI50 LOVO, SRB assay, 48 hours exposure
  GI50: 0.415 µM
[11]; read-out: LC50 LOVO, SRB assay, 48 hours exposure
  CC50: 13.4 µM
[11]; read-out: LOVO GI50, SRB assay, 48 hours exposure
  GI50: 0.525 µM
[11]; read-out: LOVO LC50, SRB assay, 48 hours exposure
  CC50: 2.03 µM
[11]; SRB assay, 48 hours exposure
  LOVO TGI: 1.03E−06
  TGI LOVO: 1.87E−06
[12]; read-out: GI50 PANC-1, SRB assay, 48 hours exposure
  GI50: 0.933 µM
[12]; read-out: LC50 PANC-1, SRB assay, 48 hours exposure
  CC50: 21.3 µM
[12]; read-out: PANC-1 GI50, SRB assay, 48 hours exposure
  GI50: 4.38 µM
[12]; read-out: PANC-1 LC50, SRB assay, 48 hours exposure
  CC50: 17.6 µM
[12]; SRB assay, 48 hours exposure
  PANC-1 TGI: 8.79E−06
  TGI PANC-1: 4.05E−06
[13]
  CC50 at 48 h: 8.28 µM
[14]; Homo sapiens, HMEC-1, 48 h, read-out: GI50 H-MEC-1, SRB assay, 48 hours exposure
  GI50: 0.446 µM
[14]; SRB assay, 48 hours exposure, in M (unit assumed)
  TGI H-MEC-1: 1.22E−06
[15]; read-out: GI50 HT-29, SRB assay, 48 hours exposure
  GI50: 0.935 µM
[15]; read-out: HT-29 GI50, SRB assay, 48 hours exposure
  GI50: 1.05 µM
[15]; read-out: HT-29 LC50, SRB assay, 48 hours exposure
  CC50: 24.6 µM
[15]; read-out: LC50 HT-29, SRB assay, 48 hours exposure
  CC50: 25.5 µM
[15]; SRB assay, 48 hours exposure
  HT-29 TGI: 3.47E−06
  TGI HT-29: 3.36E−06
